According to patent publication US20240294566A1, “ESTROGEN RECEPTOR BETA SELECTIVE LIGANDS” (Or-Genix Therapeutics, Inc., priority 2016, published 2024):

Experiments:
ERβ [1] = target: T1, ERβ (Homo sapiens, UniProt Q92731); assay: Homogeneous in vitro functional assay, coactivator recruitment (FRET); assay type: biochemical; settings: for selectivity for ERβ: ERβ over ERα, functional assay
Procedure: (§1) Structures 15 and 15′ were tested in a functional assay for ERβ and ERα as described in Liu J. et al. A Homogeneous in Vitro Functional Assay for Estrogen Receptors: Coactivator Recruitment. Mol Endocrinology 17, 346-355 (2003). Briefly, a homogeneous in vitro functional assay for measuring ligand-dependent transactivation function of ERαa and ERβ was used to measure selectivity of structures 15 and 15′ as agonists for the two classes of receptors. Briefly, agonist binding of Structures 15 and 15′ were assessed by measuring Fluorescence Resonance Energy Transfer (FRET) between europium that is associated with ligand binding domains of ERα and ERβ, and allophycocyanine that is associated with co-activator peptide that is recruited to the LBD in response to agonist binding.
Target sequence in this assay (Q92731 264-498 limits assumed): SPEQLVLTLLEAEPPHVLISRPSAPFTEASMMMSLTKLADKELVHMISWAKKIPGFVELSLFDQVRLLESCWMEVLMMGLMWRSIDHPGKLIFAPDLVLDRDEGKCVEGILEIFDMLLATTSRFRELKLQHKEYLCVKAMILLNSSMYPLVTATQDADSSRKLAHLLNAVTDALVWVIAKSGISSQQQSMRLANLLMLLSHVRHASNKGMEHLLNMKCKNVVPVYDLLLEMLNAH

ERα [2] = target: T2, ERα (Homo sapiens, UniProt P03372); assay: as above; assay type: biochemical; settings: FIG. 1
T2 sequence (P03372 311-547 limits assumed): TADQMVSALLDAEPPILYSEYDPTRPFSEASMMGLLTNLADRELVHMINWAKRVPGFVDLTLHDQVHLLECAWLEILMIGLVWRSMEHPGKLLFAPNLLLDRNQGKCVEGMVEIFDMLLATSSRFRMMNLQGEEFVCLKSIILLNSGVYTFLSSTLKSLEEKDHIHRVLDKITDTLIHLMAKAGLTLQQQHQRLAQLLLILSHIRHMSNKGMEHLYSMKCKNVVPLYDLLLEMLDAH
Procedure: as §1

ERβ [3] = target: T1, ERβ; assay: Binding assay, inhibition of [3H] estradiol binding to hER; settings: FIG. 2
Procedure: (§2) Structures 3 and 3' were tested in a binding assay for ERβ and ERα as described in Obourn […]. & Notides A. C. Hormone-and DNA-Binding Mechanisms of the Recombinant Human Estrogen Receptor. Biochemistry 32, 6229-6236 (1993). Briefly, agonist binding of Structure 3 and Structure 3' to ERα and ERβ were assessed by Scatchard analysis measuring inhibition of [^3H] estradiol binding to hER by Structure 3 and 3'.
Target sequence in this assay (Q92731 whole entry, the tested form may be a part): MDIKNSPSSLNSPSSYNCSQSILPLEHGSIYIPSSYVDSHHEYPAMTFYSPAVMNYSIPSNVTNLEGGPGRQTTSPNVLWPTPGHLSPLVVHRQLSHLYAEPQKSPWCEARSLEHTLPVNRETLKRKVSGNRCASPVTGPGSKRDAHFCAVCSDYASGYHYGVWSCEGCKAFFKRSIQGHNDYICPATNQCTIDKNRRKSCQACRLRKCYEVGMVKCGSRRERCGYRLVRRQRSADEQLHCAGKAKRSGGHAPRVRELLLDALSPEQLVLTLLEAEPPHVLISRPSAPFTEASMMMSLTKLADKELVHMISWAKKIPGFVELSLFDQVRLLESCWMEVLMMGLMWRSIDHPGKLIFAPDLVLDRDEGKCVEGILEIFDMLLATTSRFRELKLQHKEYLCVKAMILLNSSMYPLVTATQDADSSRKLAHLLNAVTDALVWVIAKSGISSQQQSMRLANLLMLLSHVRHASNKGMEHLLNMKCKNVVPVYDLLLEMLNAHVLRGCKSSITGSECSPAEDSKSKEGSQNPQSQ

ERα [4] = target: T3, ERα (Homo sapiens, UniProt P03372); assay: as above
T3 sequence (P03372 1-595): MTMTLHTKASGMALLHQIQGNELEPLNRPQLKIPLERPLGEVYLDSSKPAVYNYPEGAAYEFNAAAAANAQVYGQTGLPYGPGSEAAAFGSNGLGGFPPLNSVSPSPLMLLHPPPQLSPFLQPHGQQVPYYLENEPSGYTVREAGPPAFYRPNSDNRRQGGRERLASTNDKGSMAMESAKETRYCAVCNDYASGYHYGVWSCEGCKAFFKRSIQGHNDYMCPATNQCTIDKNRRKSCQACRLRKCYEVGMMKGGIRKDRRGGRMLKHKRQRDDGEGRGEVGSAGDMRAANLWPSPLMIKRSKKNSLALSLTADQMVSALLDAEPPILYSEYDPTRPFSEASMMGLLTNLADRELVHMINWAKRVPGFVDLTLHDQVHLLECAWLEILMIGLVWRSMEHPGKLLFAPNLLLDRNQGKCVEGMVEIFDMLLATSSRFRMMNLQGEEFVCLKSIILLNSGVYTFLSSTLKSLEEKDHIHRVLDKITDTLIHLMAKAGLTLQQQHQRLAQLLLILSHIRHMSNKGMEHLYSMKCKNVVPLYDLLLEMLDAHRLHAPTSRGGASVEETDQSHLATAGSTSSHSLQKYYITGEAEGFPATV
Procedure: as §2

ERβ [5] = target: T1, ERβ; assay: Dual estrogen receptor TR-FRET functional assay; assay type: biochemical; settings: dual ER TR-FRET assay, FIG. 3
Procedure: (§3) Structures 3 and 3' were tested in a functional assay for ERβ and ERα as described in […]., Puetter V., Otto C. Parczyk K. & Bader B. A Dual Estrogen Receptor TR-FRET Assay for Simultaneous Measurement of Steroid Site Binding and Coactivator Recruitment. J Biomolec Screening 15, 268-278 (2010). Briefly, agonist binding of Structures 3 and 3' to ERα and ERβ were assessed by a dual estrogen receptor TR-FRET assay.
Target sequence in this assay (Q92731 whole entry, the tested form may be a part): as the sequence (Q92731 whole entry, the tested form may be a part) above

ERα [6] = target: T3, ERα; assay: Dual estrogen receptor TR-FRET functional assay; assay type: biochemical; settings: dual ER TR-FRET assay
Procedure: as §3

| IC50 (ERβ [3]) [µM] | EC50 (ERβ [5]) [µM] | Compound | selectivity for ERβ (ERβ [1]) [fold] | further results |
| --- | --- | --- | --- | --- |
|  |  | COC(=O)CC[C@H]1C[C@H]2[C@@H]3CCc4cc(O)ccc4[C@H]3CC[C@]2(C)[C@H]1O [Compound 15] | > 10 | EC50 (ERβ [1]; functional coactivator recruitment FRET assay, FIG. 1): ~10 µM; EC50 (ERα [2]): > 100 µM |
|  |  | COC(=O)CC[C@@H]1C[C@H]2[C@@H]3CCc4cc(O)ccc4[C@H]3CC[C@]2(C)[C@H]1O [Compound 15′, reference compound] | ~2 |  |
| 0.1 | 3 | CCOC(=O)[C@H]1C[C@H]2[C@@H]3CCc4cc(O)ccc4[C@H]3CC[C@]2(C)[C@H]1O [Structure 3] |  | IC50 (ERα [4]; FIG. 2): 0.078 µM; EC50 (ERα [6]; FIG. 3A): 1.08 µM |
| 0.14 | > 10 | CCOC(=O)[C@@H]1C[C@H]2[C@@H]3CCc4cc(O)ccc4[C@H]3CC[C@]2(C)[C@H]1O [Structure 3′, reference compound] |  | IC50 (ERα [4]; FIG. 2B): 0.00146 µM; EC50 (ERα [6]; FIG. 3B): 0.00592 µM |
